One may read the IC50 as the concentration needed to halve the response being measured. A low value points to higher potency.

This test has as its target T1, XIAP BIR3 (Homo sapiens, UniProt P98170).
T1 construct: covering amino acids 241 to 356; XIAP BIR3; made in house; host or cells: E. coli
The test can be described thus: XIAP BIR3 binding assay (DELFIA), displacement of SMAC peptide. The following applies: GST-fusion BIR3 domain (aa 241 to 356) 10 nM, SMAC peptide 10 nM; activity of the (S)-isomers. The gist of the method:
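Each BIR3 domain (10 nM) incubated with biotinylated N-terminal SMAC peptide (10 nM) and compound for 1 h at room temp in Tris/NaCl buffer with BSA, DTT and Triton X-100. Captured on streptavidin plates; bound BIR3 detected by Eu-labelled anti-GST time-resolved fluorescence, giving IC50 values.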

T1 sequence (P98170 241-356): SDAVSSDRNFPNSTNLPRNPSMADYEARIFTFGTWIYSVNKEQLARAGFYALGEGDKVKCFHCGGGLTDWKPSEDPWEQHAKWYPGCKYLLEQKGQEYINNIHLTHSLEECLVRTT

Take `CNC(C)C(=O)Nc1ccc(-c2cnccc2C#N)c(C#Cc2cc(F)cc(F)c2)n1` (stereo not drawn) [Example 160, N-[5-(4-cyanopyridin-3-yl)-6-[2-(3,5-difluorophenyl)ethynyl]-pyridin-2-yl]-2-(methylamino)-propanamide]: the half-inhibitory concentration (IC50) was 0.474 µM.
`CNC(C)C(=O)Nc1ccc(-c2c(F)ccc3ccc(C)nc23)c(C#Cc2ccccc2)n1` (stereo not drawn) [Example 162, N-[5-(7-fluoro-2-methylquinolin-8-yl)-6-(2-phenylethynyl)pyridin-2-yl]-2-(methylamino)propan-amide] had an IC50 of 1.82 µM.
As for `CNC(C)C(=O)Nc1ccc(-c2c(OC)ccc3ccccc23)c(C#Cc2ccccc2)n1` (stereo not drawn) [Example 163, N-[5-(2-methoxynaphthalen-1-yl)-6-(2-phenylethynyl)pyridin-2-yl]-2-(methylamino)propanamide], the IC50 was 4.45 µM.
Then `CNC(C)C(=O)Nc1ccc(-c2c(C)nn(C)c2C)c(C#Cc2ccc3cnccc3c2)n1` (stereo not drawn) [Example 164, N-[6-(2-isoquinolin-6-ylethynyl)-5-(1,3,5-trimethylpyrazol-4-yl)-pyridin-2-yl]-2-(methylamino)-propanamide], with 0.335 µM; and `CC(N)C(=O)Nc1ccc(C2CCCC2)c(C#Cc2ccccc2)n1` (stereo not drawn) [Example 166, 2-amino-N-[5-cyclopentyl-6-(2-phenylethynyl)pyridin-2-yl]-propan-amide], with 0.898 µM.
Then `CCCc1ccc(NC(=O)C(C)N)nc1C#Cc1ccccc1` (stereo not drawn) [Example 167, 2-amino-N-[6-(2-phenylethynyl)-5-propylpyridin-2-yl]propanamide], with 0.874 µM; and `CCNC(CC)C(=O)Nc1ccc(-c2cncnc2)c(C#Cc2ccc3ncccc3c2)n1` (stereo not drawn) [Example 169, 2-(ethylamino)-N-[5-pyrimidin-5-yl-6-(2-quinolin-6-ylethynyl)pyridin-2-yl]butanamide], with 1.15 µM; and `CCNC(CC)C(=O)Nc1ccc(-c2cncnc2)c(C#Cc2ccc3ncccc3c2)n1` (stereo not drawn) [Example 170, 2-(ethylamino)-N-[5-pyrimidin-5-yl-6-(2-quinolin-6-ylethynyl)pyridin-2-yl]-butanamide], with 1.37 µM.
`Cc1noc(C)c1-c1ccc(NC(=O)C(C)NC(C)C)nc1C#Cc1ccccc1` (stereo not drawn) [Example 171, N-[5-(3,5-dimethyl-1,2-oxazol-4-yl)-6-(2-phenylethynyl)pyridin-2-yl]-2-(propan-2-ylamino)propanamide] came in with an IC50 of 1.03 µM.
Then `CCCNC(C)C(=O)Nc1ccc(-c2c(C)noc2C)c(C#Cc2ccccc2)n1` (stereo not drawn) [Example 172, N-[5-(3,5-dimethyl-1,2-oxazol-4-yl)-6-(2-phenylethynyl)-pyridin-2-yl]-2-(propylamino)-propanamide], with 0.502 µM.
Compound `CNC(C)C(=O)Nc1ccc(-c2c(C)ncnc2C)c(C#Cc2ccc3ccccc3c2)n1` (stereo not drawn) [Example 173, N-[5-(4,6-dimethylpyrimidin-5-yl)-6-(2-naphthalen-2-ylethynyl)pyridin-2-yl]-2-(methylamino)propanamide] yielded a half-maximal inhibitory concentration (IC50) of 0.324 µM.
Consider `CNC(C)C(=O)Nc1ccc(-c2ccc3c(c2)C(=O)CCC3)c(C#Cc2ccccc2)n1` (stereo not drawn) [Example 178, 2-(methylamino)-N-[5-(8-oxo-6,7-dihydro-5H-naphthalen-2-yl)-6-(2-phenylethynyl)pyridin-2-yl]-propanamide], for which the IC50 was determined as 0.214 µM.
`CNC(C)C(=O)Nc1ccc(-c2nccc3ccccc23)c(C#Cc2ccccc2)n1` (stereo not drawn) [Example 179, N-[5-isoquinolin-1-yl-6-(2-phenylethynyl)pyridin-2-yl]-2-(methylamino)propanamide] registered a half-inhibitory concentration (IC50) of 3.8 µM.
On to `CNC(C)C(=O)Nc1ccc(-c2cscc2-c2ccncc2)c(C#Cc2ccccc2)n1` (stereo not drawn) [Example 180, 2-(methylamino)-N-[6-(2-phenyl-ethynyl)-5-(4-pyridin-4-ylthiophen-3-yl)pyridin-2-yl]-propanamide], for which the IC50 stood at 0.26 µM.
The value for `CNC(C)C(=O)Nc1ccc(-c2ccc([N+](=O)[O-])nc2)c(C#Cc2ccccc2)n1` (stereo not drawn) [Example 181, 2-(methylamino)-N-[5-(6-nitropyridin-3-yl)-6-(2-phenyl-ethynyl)pyridin-2-yl]propanamide] was 0.222 µM; that for `CNC(C)C(=O)Nc1ccc(-c2ccc(C(N)=O)nc2)c(C#Cc2ccccc2)n1` (stereo not drawn) [Example 183, 5-[6-[[2-(methylamino)-propanoyl]amino]-2-(2-phenyl-ethynyl)pyridin-3-yl]pyridine-2-carboxamide] was 0.146 µM.
The value for `CNC(C)C(=O)Nc1ccc(-c2cnoc2C)c(C#Cc2ccccc2)n1` (stereo not drawn) [Example 188, 2-(methylamino)-N-[5-(5-methyl-1,2-oxazol-4-yl)-6-(2-phenyl-ethynyl)pyridin-2-yl]propanamide] was 0.128 µM; that for `CNC(C)C(=O)Nc1ccc(-c2cnn(C)c2-c2ccccc2)c(C#Cc2ccccc2)n1` (stereo not drawn) [Example 190, 2-(methylamino)-N-[5-(1-methyl-5-phenylpyrazol-4-yl)-6-(2-phenylethynyl)pyridin-2-yl]-propanamide] was 0.276 µM.
The value for `CNC(C)C(=O)Nc1ccc(-c2c[nH]nc2C(=O)OC)c(C#Cc2ccccc2)n1` (stereo not drawn) [Example 193, methyl 4-[6-[[2-(methylamino)-propanoyl]amino]-2-(2-phenyl-ethynyl)pyridin-3-yl]-1H-pyrazole-3-carboxylate] was 0.141 µM; that for `CNC(C)C(=O)Nc1ccc(-c2c(C)ncn2Cc2ccccc2)c(C#Cc2ccccc2)n1` (stereo not drawn) [Example 196, N-[5-(3-benzyl-5-methylimidazol-4-yl)-6-(2-phenylethynyl)pyridin-2-yl]-2-(methylamino)propan-amide] was 0.609 µM; that for `CC(N)C(=O)Nc1cc(Cl)cc(C#Cc2ccccc2)n1` (stereo not drawn) [Example 197, 2-amino-N-[4-chloro-6-(2-phenylethynyl)pyridin-2-yl]propanamide] was 3.18 µM.
In turn, `CNC(C)C(=O)Nc1cc(OC)c(-c2cncnc2)c(C#Cc2ccccc2)n1` (stereo not drawn) [Example 199, N-[4-methoxy-6-(2-phenyl-ethynyl)-5-pyrimidin-5-ylpyridin-2-yl]-2-(methyl-amino)propanamide] showed an IC50 of 0.268 µM.
On to `Cc1cc(C#Cc2ccccc2)nc(NC(=O)C(C)N)c1` (stereo not drawn) [Example 200, 2-amino-N-[4-methyl-6-(2-phenylethynyl)pyridin-2-yl]propanamide], for which the 50% inhibitory concentration (IC50) stood at 1.79 µM.
Then `CNC(C)C(=O)Nc1cc(C(F)(F)F)c(-c2cncnc2)c(C#Cc2ccccc2)n1` (stereo not drawn) [Example 201, 2-(methylamino)-N-[6-(2-phenylethynyl)-5-pyrimidin-5-yl-4-(trifluoromethyl)pyridin-2-yl]propanamide], with 10.8 µM; and `CNC(C)C(=O)Nc1cc(Cl)c(-c2cncnc2)c(C#Cc2ccccc2)n1` (stereo not drawn) [Example 202, N-[4-chloro-6-(2-phenylethynyl)-5-pyrimidin-5-ylpyridin-2-yl]-2-(methyl-amino)propanamide], with 0.483 µM; and `Cc1ccc(C#Cc2nc(NC(=O)C(C)N)cc3ccccc23)cc1` (stereo not drawn) [Example 205, 2-amino-N-[1-[2-(4-methyl-phenyl)ethynyl]isoquinolin-3-yl]propanamide], with 2.3 µM.
On to `CC(N)C(=O)Nc1cc2ccccc2c(C#Cc2ccc(Cl)cc2)n1` (stereo not drawn) [Example 207, 2-amino-N-[1-[2-(4-chlorophenyl)ethynyl]-isoquinolin-3-yl]propan-amide], for which the half-maximal inhibitory concentration (IC50) amounted to 4.24 µM.
In turn, `Cc1ccc(C#Cc2cccc(NC(=O)C(C)N)n2)cc1` (stereo not drawn) [Example 209, 2-amino-N-[6-[2-(4-methylphenyl)ethynyl]pyridin-2-yl]propanamide] came in with a 50% inhibitory concentration (IC50) of 1.46 µM.
The value for `CC(N)C(=O)Nc1cccc(C#Cc2ccc(F)cc2F)n1` (stereo not drawn) [Example 210, 2-amino-N-[6-[2-(2,4-difluorophenyl)ethynyl]pyridin-2-yl]propanamide] was 2.61 µM.
The value for `CC(N)C(=O)Nc1cccc(C#Cc2ccc(Cl)cc2)n1` (stereo not drawn) [Example 211, 2-amino-N-[6-[2-(4-chlorophenyl)ethynyl]pyridin-2-yl]propanamide] was 2.01 µM; that for `CC(N)C(=O)Nc1cccc(C#Cc2ccc(F)c(F)c2)n1` (stereo not drawn) [Example 212, 2-amino-N-[6-[2-(3,4-difluorophenyl)ethynyl]pyridin-2-yl]propanamide] was 3.06 µM.
The value for `CC(N)C(=O)Nc1cccc(C#Cc2cccc(C(=O)OCC3CCOCC3)c2)n1` (stereo not drawn) [Example 214, oxan-4-ylmethyl 3-[2-[6-[[2-aminopropanoyl]-amino]pyridin-2-yl]ethynyl]benzoate] was 7.38 µM; that for `CC(N)C(=O)Nc1cccc(C#Cc2ccsc2)n1` (stereo not drawn) [Example 216, 2-amino-N-[6-(2-thiophen-3-ylethynyl)pyridin-2-yl]propanamide] was 2.14 µM.
On to `CC(N)C(=O)Nc1cccc(C#Cc2ccncc2)n1` (stereo not drawn) [Example 218, 2-amino-N-[6-(2-pyridin-4-ylethynyl)pyridin-2-yl]propanamide], for which the IC50 was 6.54 µM.
`CC(N)C(=O)Nc1cccc(C#Cc2ccc(F)cc2)n1` (stereo not drawn) [Example 219, 2-amino-N-[6-[2-(4-fluorophenyl)ethynyl]pyridin-2-yl]propanamide] displayed an IC50 of 0.359 µM.
With `COc1cccc(C#Cc2cccc(NC(=O)C(C)N)n2)c1` (stereo not drawn) [Example 220, 2-amino-N-[6-[2-(3-methoxyphenyl)ethynyl]pyridin-2-yl]propanamide], the half-maximal inhibitory concentration (IC50) came to 2.16 µM.
The value for `Cc1cccc(C#Cc2cccc(NC(=O)C(C)N)n2)c1` (stereo not drawn) [Example 221, 2-amino-N-[6-[2-(3-methylphenyl)ethynyl]pyridin-2-yl]propanamide] was 0.222 µM; that for `CC(N)C(=O)Nc1cccc(C#Cc2ccccc2Cl)n1` (stereo not drawn) [Example 222, 2-amino-N-[6-[2-(2-chlorophenyl)ethynyl]pyridin-2-yl]propanamide] was 1.42 µM; that for `CC(N)C(=O)Nc1cccc(C#CCc2ccccc2)n1` (stereo not drawn) [Example 224, 2-amino-N-[6-(3-phenylprop-1-ynyl)pyridin-2-yl]propanamide] was 3.56 µM.

Values taken from US8859541B2, “6-alkynylpyridines” (Boehringer Ingelheim International GmbH, priority 2012, dated 2014).
